Data reported in patent publication US10034915B2, “Small heat shock proteins and active fragments thereof as a therapy for inflammation and ischemia” (The Board of Trustees of the Leland Stanford Junior …, priority 2011, dated 2018).
“Also recorded” adds a separate entry of the source.

What was measured:
Assay type in all cases: in vivo, mouse
[1] = test system: stroke in wild-type mice; assay: Cerebral ischemia (30 min middle cerebral artery filament occlusion) in wild-type mice, lesion size; conditions: vs PBS
Method: Because the restoration of plasma Cryab in Cryab^−/− mice decreased the lesion size, we next investigated whether administration of Cryab into wild-type mice would have a similar effect. When Cryab was administered beginning 1 h before stroke onset and then at 12 hrs after, the lesion size at 2 d was not different between PBS and Cryab treated wild-type mice groups (FIG. 14a).
(§1) Induction of cerebral ischemia. We used 12 to 14-week-old, male mice weighing 25-30 g. The weights of the animals in all experimental groups were similar. We used filament occlusion model of cerebral ischemia as described. Briefly, mice were anesthetized with 2% isoflurane in a mixture of 20% oxygen and 80% air. After the surgical exposure, the left external and common carotid arteries were permanently ligated. Then, a 7-0 mm, silicon rubber-coated, reusable monofilament (Doccol Inc, 70SPRe2045) was inserted into the left common carotid artery and advanced towards the left internal carotid artery 9-10 mm after the left carotid bifurcation. The core body temperature was checked by a rectal probe and maintained at 37° C. throughout the surgery by a heating pad and lamp. The cerebral blood flow was measured by a laser Doppler flow-meter and at least 80% reduction compared to presurgical baseline values was achieved after the insertion of the filament. The flowmeter probe was placed 2 mm posterior and 5-6 mm lateral to the bregma on the skull. The reperfusion was achieved by withdrawal of the filament 30 min after the insertion. After the closure of the surgical wound and the mice were returned to their cages with free access to water and food.

[2] = test system: splenocytes stimulated with concanavalin A or LPS; assay: Splenocyte cytokine response at 7 d after stroke, wild-type mice; conditions: vs PBS
Method: Effects of Cryab treatment on immune system. The effects of Cryab treatment on the splenocyte cytokine response were assessed at 7 d after stroke in wild-type mice. The total number of splenocytes in PBS and Cryab treated mice was equivalent at 7 d after stroke (data not shown). When stimulated by concanavalin A, splenocytes from Cryab treated mice produced fewer pro-inflammatory IL-2, IL-17, IFN-g, IL-12p40, IL-6 and more anti-inflammatory IL-10 than the splenocytes from PBS treated mice (FIG. 14d-i). When stimulated by LPS, Cryab-treated mice splenocytes produced fewer pro-inflammatory IL-6 and TNF than the splenocytes from PBS-treated mice (FIG. 14j, k).

[3] = test system: stroke in Cryab−/− mice; assay: Cerebral ischemia (middle cerebral artery occlusion) in Cryab−/− mice, lesion size by silver stain; conditions: IP 1 h before stroke, 12 h, 24 h and daily for seven days, vs PBS treated Cryab−/−
Method: To test if increased plasma Cryab after stroke was beneficial, Cryab^−/− mice were given intraperitoneal injections of recombinant Cryab protein starting 1 h before stroke onset and continuing at 12 h, 24 h and daily afterwards for seven days in total.
as §1, with “After the closure of the surgical wound and the mice were returned to their cages with free access to water and food.” left out

αB-crystallin [HSPB5]
blood pressure, pulse rate, plasma glucose and lactate levels and arterial blood gas analysis ([1]; before, during or after cerebral ischemia): no differences | lesion size at 2 d after stroke (TTC staining) ([1]; wild-type mice, given 1 h before stroke onset and 12 hrs after): not different | lesion size at 7 d after stroke (silver stain) ([1]; wild-type mice, given 1 h before, 12 h, 24 h after and daily for seven days): significantly reduced | lesion size at 7 d after stroke (silver stain) ([1]; wild-type mice, initial treatment 12 h after stroke onset, listed as Cryab): reduced stroke pathology; also recorded: conferred neuroprotection | IL-6 production by splenocytes ([2]; LPS stimulation): fewer | TNF production by splenocytes ([2]; LPS stimulation): fewer | IFN-g production by splenocytes ([2]; concanavalin A stimulation): fewer | IL-2 production by splenocytes ([2]; concanavalin A stimulation): fewer | IL-6 production by splenocytes ([2]; concanavalin A stimulation): fewer | IL-10 production by splenocytes ([2]; concanavalin A stimulation): more | IL-12p40 production by splenocytes ([2]; concanavalin A stimulation): fewer | IL-17 production by splenocytes ([2]; concanavalin A stimulation): fewer | total number of splenocytes [2]: equivalent | lesion size at 7 d after stroke [3]: significantly decreased; also recorded: confers neuroprotection
